We go through six compounds from US8513233B2, “Pyrimidinyl-propionic acid derivatives and their use as PPAR agonists” (Shanghai Institute of Materia Medica, CAS, priority 2007, dated 2013).

For data set [1], the system named is SPC-A1. As to the kind of experiment: Growth inhibition, modified MTT assay, SPC-A1. Type of data set: cell-based. The conditions noted are these: SPCA1, mean of 3 independent tests. How it is done:
(§1) The growth inhibition was evaluated by the modified MTT assay. Briefly, the cells were seeded at 1×10^4 cells/well in 96-well plates (Falcon, Calif., USA), and incubated for 24 h in […] culture media with 10% FCS. The media were then replaced by serum-free medium. After 24 h, the media were placed in triplicate with grade concentrations of compounds. As controls, the cells were cultivated in DMEM/F12 only. The cells were then treated by MTT (Sigma, USA) assay, […] (5 g/L) for 4 h. After the removal of the supernatant, the purple-blue sediment was dissolved in 100 μL/well DMSO, and the optical densities were read on the multi-well scanning spectrophotometer (Labsystems Dragon, Finland) at 492 nm (A492). The growth inhibition rate (GIR) of the treated cells was calculated using Equation: GIR(%)={1−[A490/A490(control)]}×100% The results were also converted to IC50 (the compound concentration required for 50% growth inhibition of tumor cells), which were calculated by using the sigmoidal fitting model by the Origin 7.0 software (OriginLab, Northampton, Mass., USA). The mean IC50 was determined from the results of 3 independent tests.
On the technique in general: Tetrazolium assays rely on reduction of a dye to a coloured formazan, in cell work by metabolically active cells.

Data set [2] concerns MCF-7. As to the kind of experiment: Growth inhibition, modified MTT assay, MCF-7. The following applies: Homo sapiens, MCF7; MCF-7, MTT, mean of 3 independent tests. Type of data set: cell-based. Here is the method:
as §1

In data set [3] the test system is T24. As to the kind of experiment: Growth inhibition, modified MTT assay, T24. Type of data set: cell-based. The conditions noted are these: Homo sapiens, T-24, mean of 3 independent tests. How it is done:
as §1

Data set [4] concerns HepG2. As to the kind of experiment: Growth inhibition, modified MTT assay, HepG2. It is filed as cell-based. The conditions noted are these: Homo sapiens, mean of 3 independent tests. How it is done: as §1
For data set [5], the target named is T1, PPAR-γ (Homo sapiens, UniProt P37231).
T1 construct: expressed in transfected cells; host or cells: U2OS cells, transiently transfected with pcDNA3.1 expression vectors (FuGene6)
T1 sequence (P37231 1-505): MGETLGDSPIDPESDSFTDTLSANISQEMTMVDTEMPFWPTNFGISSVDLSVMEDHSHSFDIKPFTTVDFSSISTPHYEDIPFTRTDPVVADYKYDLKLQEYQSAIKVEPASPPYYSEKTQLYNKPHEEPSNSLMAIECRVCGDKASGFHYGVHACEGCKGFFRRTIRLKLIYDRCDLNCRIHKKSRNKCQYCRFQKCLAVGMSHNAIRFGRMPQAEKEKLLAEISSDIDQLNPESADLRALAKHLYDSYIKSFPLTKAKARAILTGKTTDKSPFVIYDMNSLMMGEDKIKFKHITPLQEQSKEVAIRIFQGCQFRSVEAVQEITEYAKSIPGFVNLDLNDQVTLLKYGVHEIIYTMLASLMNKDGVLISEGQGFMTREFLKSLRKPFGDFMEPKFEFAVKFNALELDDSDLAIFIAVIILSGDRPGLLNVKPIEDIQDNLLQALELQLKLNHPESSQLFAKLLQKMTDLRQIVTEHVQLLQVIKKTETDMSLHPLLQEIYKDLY
T1 sequence (P19793 1-462 partner): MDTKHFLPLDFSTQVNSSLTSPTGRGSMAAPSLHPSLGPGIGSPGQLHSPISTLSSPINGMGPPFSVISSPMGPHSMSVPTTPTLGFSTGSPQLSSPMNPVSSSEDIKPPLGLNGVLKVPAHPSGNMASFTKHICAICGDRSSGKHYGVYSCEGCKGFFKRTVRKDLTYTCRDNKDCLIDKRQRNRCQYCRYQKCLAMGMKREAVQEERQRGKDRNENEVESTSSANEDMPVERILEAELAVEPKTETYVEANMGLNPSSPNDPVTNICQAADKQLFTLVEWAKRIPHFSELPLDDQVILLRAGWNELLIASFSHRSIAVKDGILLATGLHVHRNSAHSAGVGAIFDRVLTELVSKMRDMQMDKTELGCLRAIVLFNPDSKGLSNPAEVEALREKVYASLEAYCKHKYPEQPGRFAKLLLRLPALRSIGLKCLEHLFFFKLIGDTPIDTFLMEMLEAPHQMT
As to the kind of experiment: Transient transfection and transcription assay (luciferase reporter, U2OS cells). Type of data set: cell-based. The conditions noted are these: 24 h treatment. How it is done: cDNAs for Human RXR, PPAR were obtained by RTPCR from the human liver or adipose tissues. Amplified cDNAs were cloned into pcDNA3.1 expression vector and the inserts were confirmed by sequencing. U2OS cells were cultured in McCoy's 5A with 10% heat-inactivated fetal bovine serum in a humidified 5% CO2 atmosphere at 37° C. Cells were seeded in 96-well plates the day before transfection to give a confluence of 50-80% at transfection. A total of 60 ng of DNA containing 10 ng of hRXR, 10 ng of pCMV Gal, 10 ng of nuclear receptor expression vectors and 30 ng of the corresponding reporters were cotransfected per well using FuGene6 transfection reagent according to the manufacturer's instructions. […] The final concentration of DMSO in culture medium was 0.1%. […] Luciferase activity was monitored using the luciferase assay kit according to the manufacturers instructions. Light emission was read in a Labsystems Ascent Fluoroskan reader. To measure galactosidase activity to normalize the luciferase data, 50 IL of supernatant from each transfection lysate was transferred to a new microplate. Galactosidase assays were performed in the microwell plates using a kit from Promega and read in a microplate reader. Compounds were tested in five concentrations ranging from 0.01 to 10 μM. […] The results were expressed as means (SD).
In general terms: Reporter assays use an easily measured gene product as a stand-in for the process of interest.

The test system of data set [6] is Han:SPRD rat model of ADPKD. Type of data set: in vivo. The conditions noted are these: for 24-hour urine protein level / Blood urea nitrogen (BUN) levels: Treatment Group 10 mg/kg.d. An excerpt:
Han: SPRD rats were obtained from our own breeding colony that is derived from animals that were kindly provided to us by Mayo Clinic (Rochester Minn.), All animal procedures and care were taken at the SPF-level Laboratory Animal Center of the Second Military Medical University (Shanghai, […].). Carboxymethyl cellulose sodium (CMC-Na) was purchased from Shanghai Chemical Reagent Company. Automatic clinical chemistry analyzer (Hitachi Clinical Analyzer 7080).
2.1 Experimental protocol: A total of 48 Han:SPRD rats (about ⅔ rats were Cy/+, ⅓ were +/+, homozygote rats −/− die within 3 weeks), all at 3 weeks of age, were randomized into 2 groups: negative control group and treatment groups (10 mg/kg.d compound 2). The rats of negative control group were given 1% CMC-Na, while the rats of treatment group were given 10 mg/kg.d compound 2 (suspended in 1% CMC-Na) by daily gavage from 3 weeks through 11 weeks of age, removal +/+ rats in both groups, then general animal feeds were given to rats in control group, the rats of treatment group were given animal feeds added by 0.03% of compound 2 (approximately 10 mg/kg. d), both groups were maintained with free access to water. Long-term observation of the rats until they died, record the length of their life span. 2.2 Physiological and biochemical indexes: since the day of treatment, general state and body weight of rats were examined and recorded every month, Blood (2 ml) was obtained from the rat orbital venous plexus using a glass capillary tube, then centrifuged for 10 minutes at 4000 rpm to collect serum for biochemical analysis including blood urea nitrogen (BUN), ALT, AST, serum lipids et. Urine was collected using Metabolic Cage for 24-hour urine protein analysis. 3.

Where [7] appears, read: after 2 months of treatment, P<0.001.

A word on the pIC50: it is the negative decadic logarithm of the IC50, by convention in mol/L. In general, melting point refers to the temperature, or range, at which the solid turns liquid. For orientation: pEC50 means −log10 of the EC50, conventionally taken in molar units. Lower therefore signals a high EC50.

pEC50, pIC50: −log10 of the molar value. Like-named read-outs stand apart in the source and are kept apart here.

Take `CC(Cc1ccc(Oc2cc(N3CCN(Cc4ccc(Cl)cc4)CC3)nc(N)n2)cc1)(Oc1ccccc1)C(=O)O` (stereo not shown) [Compound 13, 3-{4-{2-Amino-6-[4-(4-chloro-benzyl)-piperazin-1-yl]-pyrimidin-4-yloxy}-phenyl}-2-methyl-2-phenoxy-propionic acid]: the melting point lay in the range of 103 to 105 °C. Also, the pIC50 in data set [1] is less than 4.30. The compound also showed a pIC50 in data set [2] of 4.31. Also, the pIC50 in data set [3] was 4.34. Besides, the pIC50 in data set [4] is less than 4.30.

`CC(Cc1ccc(Oc2cc(N3CCN(Cc4ccncc4)CC3)nc(N)n2)cc1)(Oc1ccccc1)C(=O)O` (stereo not shown) [Compound 40, 3-{4-[2-Amino-6-(4-pyridin-4-ylmethyl-piperazin-1-yl)-pyrimidin-4-yloxy]-phenyl}-2-methyl-2-phenoxy-propionic acid] came in with a melting point of 137 to 138 °C. The negative-log IC50 (pIC50) in data set [1] was 4.33. For the same compound, the negative-log IC50 (pIC50) in data set [2] is 4.34. Besides, the pIC50 in data set [3] is less than 4.30. The negative-log IC50 (pIC50) in data set [4] is less than 4.30.

For the compound `CC(Cc1ccc(Oc2cc(N3CCN(Cc4ccc([N+](=O)[O-])cc4)CC3)nc(N)n2)cc1)(Oc1ccccc1)C(=O)O` (stereo not shown) [Compound 38, 3-{4-{2-Amino-6-[4-(4-nitro-benzyl)-piperazin-1-yl]-pyrimidin-4-yloxy}-phenyl}-2-methyl-2-phenoxy-propionic acid], the melting point lay in the range of 160 to 162 °C. This compound also showed a pIC50 in data set [1] of less than 4.30. Besides, in data set [2], the pIC50 is 4.34. Further, the negative logarithm of the IC50 (pIC50) in data set [3] was 4.39. The compound further had a pIC50 in data set [4] of less than 4.30.

Take `CC(Cc1ccc(Oc2cc(N3CCN(Cc4ccccc4)CC3)nc(N)n2)cc1)(Oc1ccccc1)C(=O)O` (racemic) [Compound 2, rac-3-{4-[2-Amino-6-(4-benzyl-piperazin-1-yl)-pyrimidin-4-yloxy]-phenyl}-2-methyl-2-phenoxy-propionic acid]: the negative logarithm of the IC50 (pIC50) in data set [1] is 4.18; in data set [2], 4.26; in data set [3] it was 4.14; in data set [4], 4.09. Further, the negative logarithm of the EC50 (pEC50) in data set [5] is 5.17. In addition, the “24-hour urine protein level” value in data set [6] (1 month) was 62.3 ± 6.3 mg/24 h; in data set [6] (2 month), 64.1 ± 5.0 mg/24 h; in data set [6] (3 month) it was 67.1 ± 4.9 mg/24 h; in data set [6] (4 month) it was 66.3 ± 4.6 mg/24 h; in data set [6] (5 month) it was 67.1 ± 3.6 mg/24 h; in data set [6] (6 month), 66.0 ± 8.6 mg/24 h. The “24-hour urine protein level” value was 64.4 ± 2.8 mg/24 h in data set [6] (7 month); 70.4 ± 8.8 mg/24 h in data set [6] (8 month); 67.8 ± 3.2 mg/24 h in data set [6] (9 month); 70.0 ± 5.9 mg/24 h in data set [6] (10 month); “Non-detected” in data set [6] (baseline). Further, the “Blood urea nitrogen (BUN) levels” value in data set [6] (1 month) was found to be 11.55 ± 0.57 mmol/L; in data set [6] (2 month) it was 12.36 ± 0.77 mmol/L; in data set [6] (3 month), 12.58 ± 1.35 mmol/L; in data set [6] (4 month), 12.79 ± 1.41 mmol/L; in data set [6] (5 month) it was 13.10 ± 1.64 mmol/L; in data set [6] (6 month), 13.26 ± 1.05 mmol/L. In addition, the “Blood urea nitrogen (BUN) levels” value in data set [6] (7 month) amounted to 12.60 ± 1.40 mmol/L; in data set [6] (8 month), 13.16 ± 1.73 mmol/L; in data set [6] (9 month), 12.87 ± 2.72 mmol/L; in data set [6] (10 month) it was 13.17 ± 3.70 mmol/L; in data set [6] (baseline) it was 4.97 ± 0.67 mmol/L. In addition, the “average 24-hour urine protein level compared with the negative control group” value in data set [6] (setting [7]) was “lower”. Further, the “average BUN level compared with control group” value in data set [6] (setting [7]) is on record as “lower”. In addition, in data set [6] (at suitable dose, FIG. 1), the “life span of Han:SPRD rats” value is “prolong the life span”. In data set [6] (rat, in vivo), the “change in body weight” value is listed as “no statistically significant change”. The “poisonous and side effects” value in data set [6] (rat, in vivo) is “without any obvious poisonous and side effects”. Also, the “serum ALT” value in data set [6] (rat, in vivo) is recorded as “within the normal range”. In addition, the “serum AST” value in data set [6] (rat, in vivo) was “within the normal range”. Moreover, the serum lipids result in data set [6] (rat, in vivo) is listed as “within the normal range”. Further, the average survival time in data set [6] (treatment group, long-term, 2 rats still alive) is no less than 451.1 days.

Take `CC(Cc1ccc(Oc2cc(N3CCN(Cc4cccnc4)CC3)nc(N)n2)cc1)(Oc1ccccc1)C(=O)O` (stereo not shown) [Compound 39, 3-{4-[2-Amino-6-(4-pyridin-3-ylmethyl-piperazin-1-yl)-pyrimidin-4-yloxy]-phenyl}-2-methyl-2-ph enoxy-propionic acid]: the melting point lay within 141 to 143 °C. In data set [1], this compound gave a negative-log IC50 (pIC50) of 4.36. Moreover, the negative logarithm of the IC50 (pIC50) in data set [2] was 4.41. The pIC50 in data set [3] is less than 4.30. The same compound gave a pIC50 in data set [4] of less than 4.30.

The compound `CC(Cc1ccc(Oc2cc(N3CCN(Cc4ccc(C(F)(F)F)cc4)CC3)nc(N)n2)cc1)(Oc1ccccc1)C(=O)O` (stereo not shown) [Compound 8, 3-{4-{2-Amino-6-[4-(4-trifluoromethyl-benzyl)-piperazin-1-yl]-pyrimidin-4-yloxy}-phenyl}-2-methyl-2-phenoxy-propionic acid] had a melting point of 114 to 115 °C. In data set [1], this compound gave a negative-log IC50 (pIC50) of 4.37. This compound showed a negative logarithm of the IC50 (pIC50) in data set [2] of 4.55. In data set [3], this compound showed a pIC50 of 4.44. The compound further gave a pIC50 in data set [4] of less than 4.30.
